The source of these data is paper PMC8028158 (ACS Omega, 2021).

The target in this test is T1, mouse TRPC7 (Mus musculus, UniProt Q9WVC5).
T1 sequence (Q9WVC5 1-862): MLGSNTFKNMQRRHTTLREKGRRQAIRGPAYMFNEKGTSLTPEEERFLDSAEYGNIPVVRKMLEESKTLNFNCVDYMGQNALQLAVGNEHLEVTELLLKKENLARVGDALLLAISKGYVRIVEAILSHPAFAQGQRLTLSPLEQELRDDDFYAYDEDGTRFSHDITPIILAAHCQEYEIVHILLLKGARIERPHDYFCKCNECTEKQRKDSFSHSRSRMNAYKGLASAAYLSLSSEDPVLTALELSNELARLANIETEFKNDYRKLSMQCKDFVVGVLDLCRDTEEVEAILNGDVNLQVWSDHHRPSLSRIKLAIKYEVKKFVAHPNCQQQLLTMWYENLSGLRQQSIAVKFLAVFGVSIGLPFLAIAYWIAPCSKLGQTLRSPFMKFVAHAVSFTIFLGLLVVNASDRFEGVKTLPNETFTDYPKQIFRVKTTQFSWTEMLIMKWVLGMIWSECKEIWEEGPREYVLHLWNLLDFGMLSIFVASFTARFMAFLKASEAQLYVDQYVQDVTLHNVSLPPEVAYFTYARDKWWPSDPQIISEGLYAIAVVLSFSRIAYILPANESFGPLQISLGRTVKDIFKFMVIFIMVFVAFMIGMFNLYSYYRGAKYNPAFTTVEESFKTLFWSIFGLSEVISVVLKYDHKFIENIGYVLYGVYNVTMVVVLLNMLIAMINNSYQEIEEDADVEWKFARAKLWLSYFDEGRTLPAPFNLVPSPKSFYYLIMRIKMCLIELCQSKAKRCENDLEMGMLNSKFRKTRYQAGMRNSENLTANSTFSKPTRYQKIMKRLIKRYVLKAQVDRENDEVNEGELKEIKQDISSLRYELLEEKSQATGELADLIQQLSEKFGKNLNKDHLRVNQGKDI
Briefly: Fluorescence Ca2+ assay in TRPC7-HEK293 cells. The class given is cell-based. Particulars: induced by 10 μM HDM.

“Also recorded” adds a separate entry of the source.

`COc1cccc2sc(N(CCN(C)C)C(=O)c3ccc4c(c3)CCCC4)nc12` [Compound 1s, N-(2-(dimethylamino)ethyl)-N-(4-methoxybenzo[d]thiazol-2-yl)-5,6,7,8-tetrahydronaphthalene-2-carboxamide]: the “Effect on Ca2+ response in TRPC7-HEK293 cells” value is “almost did not cause a discernible Ca^2+ response; also recorded: little or no effect; also recorded: no effect”.
